We go through one molecule from patent US20150004620A1, “METHOD OR DEVICE FOR IDENTIFYING INHIBITOR OF EPITHELIAL MESENCHYMAL TRANSITION” (Agency for Science, Technology and Research, priority 2011, published 2015).

Assay type in all cases: cell-based
The test system of assay [1] is IGF-1-induced EMT in NBT-II cells. Description: EMT spot migration assay, IGF-1-induced. The settings on record: IGF-1-induced EMT (150 ng/ml IGF-1), CDR dose response from 6.67 μM, read-out: Cell Dispersion IC 50, IGF-1. How it is done: NBT-II cells were stably transfected with mcherry-fluorescent H2B and maintained in DMEM supplemented with 10% fetal bovine serum (FBS, Thermo Scientific), 1 μg/ml puromycin (Sigma) and 100 units/ml penicillin-streptomycin (1× pen-strep, Invitrogen). Cells were grown to 80% confluency in tissue culture flasks prior to plating. Cells were trypsinized and concentrated to a density of 5×10^6 cell/ml in CO2-independent medium (Invitrogen) supplemented with 10% FBS. The cell suspension was then evenly dispersed into the wells of two columns of a 96-well V-bottom plate. Using a robotic liquid-handling station (Bravo, Agilent Technologies), 0.5 μl of cell suspension was transferred from the two columns of the cell suspension-loaded plate and deposited into the center of the wells of two columns of a 96-well clear bottom, black assay plate (Corning). This process was repeated six times so that all 96 wells of the assay plate were deposited with a cell suspension spot. The plate was then sealed to minimize evaporation of the cell suspension spots and transferred to a 37° C., 5% CO2 incubator to allow for cells to attach to the culture surface. After 1 hour, the plate was gently washed with medium once to remove unattached cells, refreshed with 100 μl of assay medium (DMEM supplemented with 10% FBS and 1× pen-strep), and then further incubated to allow for cell-cell contacts to establish in the cell colonies.
Four tiled, non-overlapping images were acquired around the center of each well, and were then stitched together during image analysis to generate a montage covering an area of 3.2 mm×3.2 mm. These images (T1) represent the initial state of the cell colonies before EMT induction.
After the T1 images were acquired, 1 μl of test compounds were transferred from compound stock plates and added to the assay plates. Appropriate negative controls (1 μl DMSO) and positive controls (1 μl 1.0 mM compound in DMSO) were also added into columns 1 and 12 of each assay plate, respectively. […] The cultures were then further incubated overnight.
The next day, 50 μl of growth factor-containing medium was added to each well of the assay-plates. For each of the growth factor-induced EMT spot migration assays, the final growth factor concentrations in each well is optimized to be 20 ng/ml EGF (Sigma), 4 ng/ml HGF (Calbiochem) or 150 ng/ml IGF-1 (R&D Systems), respectively. The cultures were then incubated for another 24 hours, to allow for EMT and sufficient cell motility/dispersion to occur in the cell colonies.
Finally, the cell colonies were imaged again using the microplate imager, as described above. These images (T2) represent the final state of the cell colonies after compound treatment and EMT induction. The acquired T1 and T2 image sets for each assay plate were then sent for image analysis.
The acquisition of each well was obtained by four adjacent field images with no interstice in between. Each field image was loaded and nuclei were initially segmented independently of other fields to prevent artifact at the field border. Nuclei segmentation was achieved by combining a wavelet transform which is robust to noise and unhomogeneous background, and a watershed algorithm based on intensities to split nuclei clusters. Mask of nuclei segmentation of the different fields were then stitched together in order to obtain a large segmentation of the whole well. Cell bodies were estimated by applying a morphological dilation on the nucleus segmentation using a disk of 30 pixels (48 μm) in diameter. In cells that are contiguous, such as in a cell colony, nuclei segmentation dilation will result in the formation of continuous region areas with surrounding cells which can then be identified as colonies.
Total cell number and spreading coefficient values for each well were then exported into an Excel sheet.

Assay [2] relates to E-cadherin. Description: Western blot of EMT marker E-cadherin in growth factor-treated NBT-II cells. To be noted: NBT-II cells, 0.5, 2 and 8 μM compound overnight, then EGF, HGF or IGF-1 for 24 h (FIG. 7). How it is done: NBT-II cells were treated with compounds at 0.5, 2 and 8 μM overnight and incubated with a growth factor for 24 h. Cells were lysed with protease/phosphatase inhibitor-containing RIPA buffer. Proteins are separated in 8% polyacrylamide gels and transferred to PDVF membranes. Membranes were blocked in 5% BSA and incubated at 4° C. overnight with MMP-13 (Millipore), E-cadherin (BD) and α-tubulin (Sigma) primary antibodies. Membranes were then developed with HRP-conjugated secondary antibody (Amersham) and ECL substrate (Millipore).
The possibilities that ALK5, MEK, PI3K and SRC targeting compounds could modulate the expression of EMT markers, such as E-cadherin and matrix metalloproteinase-13 (MMP-13) under EMT-activated conditions were also investigated (FIG. 7). With the exception of P13K inhibitor GDC-0941, the compounds in general abrogated MMP-13 expression in growth factor-treated samples, PI3K inhibition has been previously shown to augment MMP-13 expression. […] These findings are consistent with previous reports showing that ALK5, MEK and SRC play a role in cell motility and tumor progression, while PI3K predominately regulates cell proliferation.

The test system of assay [3] is E-cadherin. Description: Western blot of E-cadherin in ovarian carcinoma cell lines. To be noted: panel of ovarian carcinoma cell lines, 2 μM for 48 hours vs 0.02% DMSO. How it is done: (§1) FIG. 11 is a western blot image showing the increase in epithelial marker E-cadherin expression and the decrease of mesenchymal marker MMP-13 expression in panel of ovarian carcinoma cell lines treated with AZD0530. Cell lines were treated with 2 μM AZD0530 or 0.02% DMSO control for 48 hours. Thus, FIG. 11 provides an example of possible downstream analysis that may be conducted subsequent to the detection of possible inhibitor by the method as described herein. In this figure, western blot analysis was used to validate the possible inhibitor detected by the method as described herein.
(§2) For western blot experiments with other cell lines, cells are treated either with AZD0530, such as 2 μM AZD0530 or DMSO, such as 0.02% DMSO control for 48 h. The samples are then processed using the same procedure as described above. The samples were probed with MMP-13, E-cadherin, plakoglobin (Cell Signaling), α-tubulin, and β-actin (Cell Signaling) antibodies.
Background: Immunoblotting shows a protein as a band on a membrane.

Another assay deals with MMP-13. Description: Western blot of MMP-13 in ovarian carcinoma cell lines. To be noted: panel of ovarian carcinoma cell lines, 2 μM for 48 hours vs 0.02% DMSO. The method, then: as §1, §2

With `CN1CCN(CCOc2cc(OC3CCOCC3)c3c(Nc4c(Cl)ccc5c4OCO5)ncnc3c2)CC1` [AZD0530], the IC50 in assay [1] came to 240 nM. For the same molecule, the E-cadherin expression entry in the assay with E-cadherin [2] is reported as “augment E-cadherin expression”. Also, the “Epithelial marker E-cadherin expression” value with E-cadherin [3] is on record as “increase”. The “Mesenchymal marker MMP-13 expression” value in the assay on MMP-13 is “decrease”.
